These results are taken from US20230097975A1, “BORTEZOMIB COMPOSITIONS” (MAIA Pharmaceuticals, Inc., priority 2021, published 2023).

Converted amounts (≈) assume the structure as drawn.

The nature of data set [1]: Estimated solubility of bortezomib in select non-aqueous solvents (visual, incremental solvent addition). In kind it is physicochemical. How it is done:
The appearance of the solution was recorded.

The conditions of data set [2]: cited from earlier work.

For the compound `CC(C)C[C@H](NC(=O)[C@H](Cc1ccccc1)NC(=O)c1cnccn1)B(O)O` [Bortezomib, [(1R)-3-methyl-1-[[(2S)-1-oxo-3-phenyl-2-[(pyrazinylcarbonyl)amino]propyl]amino]butyl] boronic acid], the Observation entry in data set [1] (N-methyl pyrrolidone (NMP)) is “Completely dissolved after 1 mL”; in data set [1] (benzyl alcohol), “Completely dissolved after 0.5 mL”; in data set [1] (dimethyl sulfoxide (DMSO)), “Completely dissolved after 0.5 mL”; in data set [1] (glycerol) it was “No significant dissolution observed up to 10 mL”; in data set [1] (polyethylene glycol 400) it was “No significant dissolution observed up to 10 mL”. The results for the “Observation (solvent needed to dissolve approx. 25 mg)” value in data set [1] (alcohol (ethanol)) and in data set [1] (propylene glycol) were “Approximately 5.5 mL of solvent needed” and “Approximately 7 mL of solvent needed”, respectively. The “Estimated Solubility” value in data set [1] (in benzyl alcohol) and in data set [1] (in dimethyl sulfoxide (DMSO)) was greater than 50 mg/mL in each case.

As for `OCc1ccccc1` [benzyl alcohol], the Solubility in water in data set [2] is 35 mg/mL (≈ 324 mM).
